What all share (assay type): biochemical
In one test the target is T1, JAK2 (Homo sapiens, UniProt O60674).
T1 construct: purchased Life technology
The experiment in a line: Test for in vitro activity of JAK2 kinase (LANCE Ultra ULight-JAK-1 peptide). The procedure:
(§1) Test for In Vitro Activity of Jak1, Jak2, and Jak3 Kinase
(§2) Recombinant human […] of JAK1, JAK2 and JAK3 were purchased from Life technology. LANCE Ultra ULight™-JAK-1 (Tyr1023) peptide and LANCE Eu-W1024 Anti-phosphotyrosine (PT66) were purchased from PerkinElmer. Multimode ELISA, Envison(PerkinElmer) reader was used.
The reaction was carried out at room temperature for 60 min and the reaction system was 10 ul.
(§3) Determination for Reaction
(§4) 10 ul detection reagent was added to reaction plate, wherein the final concentration of LANCE Eu-W1024 Anti-phosphotyrosine (PT66) was 2 nM, the final concentration of EDTA was […], incubated at room temperature for 60 min, with Envison reader.
(§5) The reading was converted to inhibition ratio (%) by the following formula: the inhibition ratio (%)=([…])/(Max−Min)×100%.
Background: In TR-FRET formats the signal depends on donor and acceptor labels being close together.

Another test deals with T2, JAK1 (Homo sapiens, UniProt P23458).
T2 construct: purchased Life technology
The experiment in a line: Test for in vitro activity of JAK1 kinase (LANCE Ultra ULight-JAK-1 peptide). Conditions: selectivity ratio JAK1 versus JAK2; class symbol. How it is done: as §1, §2
The reaction was carried out at room temperature for 90 min and the reaction system was 10 ul.
as §3, §4, §5

The target of the next test is T3, JAK3 (Homo sapiens, UniProt P52333).
T3 construct: purchased Life technology
T3 sequence (P52333 1-1124): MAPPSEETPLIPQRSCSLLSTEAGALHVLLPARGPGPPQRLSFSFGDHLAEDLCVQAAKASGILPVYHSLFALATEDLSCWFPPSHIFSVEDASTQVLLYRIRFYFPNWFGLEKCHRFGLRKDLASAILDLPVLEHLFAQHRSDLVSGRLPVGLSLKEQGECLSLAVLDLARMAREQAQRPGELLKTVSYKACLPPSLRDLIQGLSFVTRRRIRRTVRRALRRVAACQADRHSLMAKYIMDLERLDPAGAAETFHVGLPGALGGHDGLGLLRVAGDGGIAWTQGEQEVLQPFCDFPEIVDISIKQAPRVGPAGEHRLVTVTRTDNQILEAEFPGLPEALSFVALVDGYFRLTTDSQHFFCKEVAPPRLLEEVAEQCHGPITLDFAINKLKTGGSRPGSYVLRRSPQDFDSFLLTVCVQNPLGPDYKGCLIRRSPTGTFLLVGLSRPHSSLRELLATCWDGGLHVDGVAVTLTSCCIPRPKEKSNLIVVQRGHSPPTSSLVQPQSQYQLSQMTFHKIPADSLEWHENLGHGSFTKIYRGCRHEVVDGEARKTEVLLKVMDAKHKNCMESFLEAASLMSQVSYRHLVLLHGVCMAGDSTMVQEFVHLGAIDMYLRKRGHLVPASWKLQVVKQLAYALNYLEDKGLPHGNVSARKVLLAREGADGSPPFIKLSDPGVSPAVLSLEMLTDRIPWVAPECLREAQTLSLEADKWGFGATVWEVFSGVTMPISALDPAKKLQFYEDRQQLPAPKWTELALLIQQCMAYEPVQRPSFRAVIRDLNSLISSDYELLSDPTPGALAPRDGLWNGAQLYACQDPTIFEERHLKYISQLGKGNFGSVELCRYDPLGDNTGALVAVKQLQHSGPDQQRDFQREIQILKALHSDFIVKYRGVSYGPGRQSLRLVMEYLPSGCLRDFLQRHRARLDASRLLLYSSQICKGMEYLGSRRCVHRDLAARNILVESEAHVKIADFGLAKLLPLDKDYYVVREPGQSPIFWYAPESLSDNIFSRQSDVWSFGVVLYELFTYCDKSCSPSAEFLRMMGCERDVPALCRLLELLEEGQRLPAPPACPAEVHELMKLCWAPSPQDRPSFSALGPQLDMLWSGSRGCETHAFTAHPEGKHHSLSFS
The experiment in a line: Test for in vitro activity of JAK3 kinase (LANCE Ultra ULight-JAK-1 peptide). How it is done:
as §1, §2
0.05 nM of JAK3 Protein kinase, 50 nM of LANCE Ultra ULight™-JAK-1(Tyr1023) peptide, 4 uM of ATP, 50 mM of HEPES (pH 7.5), 10 mM of MgCl2, 1 mM of EGTA, 2 mM of DTT, 0.01% BRIJ-35. […] The reaction was carried out at room temperature for 90 min and the reaction system was 10 ul.
as §3, §4, §5

The mark [1] stands for this setting: recombinant human JAK2, 12 uM ATP, 60 min, class symbol.
Setting [2] is: selectivity ratio JAK3 versus JAK2, class symbol.

Read-outs that look alike come from different tables or passages of the source.

T2 sequence (P23458 whole entry): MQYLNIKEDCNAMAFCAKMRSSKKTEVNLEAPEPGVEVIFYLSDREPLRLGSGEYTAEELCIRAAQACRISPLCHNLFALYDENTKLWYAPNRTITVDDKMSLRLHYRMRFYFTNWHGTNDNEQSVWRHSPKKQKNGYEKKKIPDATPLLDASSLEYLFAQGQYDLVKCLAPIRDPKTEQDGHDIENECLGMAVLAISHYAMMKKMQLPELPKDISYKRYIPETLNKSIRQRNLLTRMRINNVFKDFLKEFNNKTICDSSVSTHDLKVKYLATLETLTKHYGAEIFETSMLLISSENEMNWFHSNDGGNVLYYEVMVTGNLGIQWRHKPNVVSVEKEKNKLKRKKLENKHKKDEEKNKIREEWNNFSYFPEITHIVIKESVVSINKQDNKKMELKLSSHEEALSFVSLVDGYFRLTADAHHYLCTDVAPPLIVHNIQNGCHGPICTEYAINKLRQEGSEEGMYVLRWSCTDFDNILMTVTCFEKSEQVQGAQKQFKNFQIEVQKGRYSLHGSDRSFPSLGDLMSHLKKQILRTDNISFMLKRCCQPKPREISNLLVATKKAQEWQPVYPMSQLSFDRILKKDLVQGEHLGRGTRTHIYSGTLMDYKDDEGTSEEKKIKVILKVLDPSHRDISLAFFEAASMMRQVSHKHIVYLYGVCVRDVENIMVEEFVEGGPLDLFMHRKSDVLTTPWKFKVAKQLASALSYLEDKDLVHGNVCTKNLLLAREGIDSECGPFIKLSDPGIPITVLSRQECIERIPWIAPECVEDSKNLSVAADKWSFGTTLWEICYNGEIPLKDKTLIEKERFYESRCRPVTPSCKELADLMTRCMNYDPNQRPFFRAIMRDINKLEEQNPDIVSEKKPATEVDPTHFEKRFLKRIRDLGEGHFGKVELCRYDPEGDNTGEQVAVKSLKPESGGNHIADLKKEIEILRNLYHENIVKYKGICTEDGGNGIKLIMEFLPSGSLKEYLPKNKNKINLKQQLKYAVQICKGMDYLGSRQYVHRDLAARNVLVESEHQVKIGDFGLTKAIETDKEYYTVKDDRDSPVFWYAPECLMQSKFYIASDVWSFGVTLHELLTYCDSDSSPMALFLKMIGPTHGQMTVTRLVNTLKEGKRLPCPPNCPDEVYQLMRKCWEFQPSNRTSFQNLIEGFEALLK
T1 sequence (O60674 whole entry): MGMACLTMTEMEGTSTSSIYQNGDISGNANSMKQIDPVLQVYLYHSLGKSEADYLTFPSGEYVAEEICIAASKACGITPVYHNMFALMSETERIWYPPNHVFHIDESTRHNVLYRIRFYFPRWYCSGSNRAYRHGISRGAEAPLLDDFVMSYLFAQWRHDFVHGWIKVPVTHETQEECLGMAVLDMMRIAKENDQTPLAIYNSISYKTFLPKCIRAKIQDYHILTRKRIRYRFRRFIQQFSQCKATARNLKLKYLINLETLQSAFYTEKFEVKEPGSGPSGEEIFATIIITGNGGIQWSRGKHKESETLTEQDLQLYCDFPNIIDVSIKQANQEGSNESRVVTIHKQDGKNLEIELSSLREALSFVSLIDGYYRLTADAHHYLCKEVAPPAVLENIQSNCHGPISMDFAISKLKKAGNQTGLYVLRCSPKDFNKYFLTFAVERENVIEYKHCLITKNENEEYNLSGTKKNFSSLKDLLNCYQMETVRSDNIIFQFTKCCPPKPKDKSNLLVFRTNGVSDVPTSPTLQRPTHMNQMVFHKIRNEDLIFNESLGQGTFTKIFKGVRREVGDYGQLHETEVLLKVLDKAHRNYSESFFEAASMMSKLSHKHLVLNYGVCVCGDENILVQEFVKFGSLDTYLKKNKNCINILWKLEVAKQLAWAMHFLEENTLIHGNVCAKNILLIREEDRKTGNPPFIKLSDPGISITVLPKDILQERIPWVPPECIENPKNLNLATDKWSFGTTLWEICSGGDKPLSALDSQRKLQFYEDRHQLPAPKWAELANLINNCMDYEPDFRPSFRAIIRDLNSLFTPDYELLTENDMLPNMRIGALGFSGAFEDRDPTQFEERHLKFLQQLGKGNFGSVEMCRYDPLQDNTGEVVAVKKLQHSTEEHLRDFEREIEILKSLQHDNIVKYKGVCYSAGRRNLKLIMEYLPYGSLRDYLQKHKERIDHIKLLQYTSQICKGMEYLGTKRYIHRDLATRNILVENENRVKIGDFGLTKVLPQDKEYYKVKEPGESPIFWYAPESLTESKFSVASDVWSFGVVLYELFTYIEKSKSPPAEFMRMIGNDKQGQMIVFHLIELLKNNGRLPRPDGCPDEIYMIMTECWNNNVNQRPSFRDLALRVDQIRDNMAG

By IC50 is commonly meant the concentration that gives 50% inhibition. Regarding `CCS(=O)(=O)N1CC(CC#N)(n2cc(-c3cccc4nc(NC(=O)C5CC5)nn34)cn2)C1` [WX16, N-(5-(1-(3-(cyanomethyl)-1-(ethylsulfony)azetidine-3-yl)-1H-pyrazole-4-yl]-[1,2,4]triazolo[1,5-a]pyridin-2-yl)cyclopropyl carboxamide], the IC50 on JAK2 (setting [1]) was < 10 nM. Besides, the “JAK1/JAK2 (times)” value at JAK1 is reported as “F1 (1 ≤ F1 ≤ 5)”. The “JAK3/JAK2 (times)” value on JAK3 (setting [2]) is recorded as “F3 (10 < F3 ≤ 25)”.
In the case of `N#CCC1(n2cc(-c3cccc4ncnn34)cn2)CN(S(=O)(=O)C(F)(F)F)C1` [WX17, 2-[3-[4-([1,2,4]triazolo[1,5-a]pyridin-5-)pyrazole-1-]-1-(trifluoromethylsulfonyl)azetidine-3-]acetonitrile], the IC50 on JAK2 (setting [1]) is 10 to 100 nM. The “JAK1/JAK2 (times)” value at JAK1 is reported as “F1 (1 ≤ F1 ≤ 5)”. At JAK3 (setting [2]), the “JAK3/JAK2 (times)” value is reported as “F3 (10 < F3 ≤ 25)”.
With `N#CCC1(n2cc(-c3cccc4nc(N)nn34)cn2)CN(S(=O)(=O)C(F)(F)F)C1` [WX18], the IC50 on JAK2 (setting [1]) was < 10 nM. Moreover, the “JAK1/JAK2 (times)” value at JAK1 is “F1 (1 ≤ F1 ≤ 5)”. For the same compound, the “JAK3/JAK2 (times)” value on JAK3 (setting [2]) is on record as “F3 (10 < F3 ≤ 25)”.
As to `CS(=O)(=O)N1CC(CC#N)(n2cc(-c3cccc4nc(N)nn34)cn2)C1` [WX19, 2-(3-(4-(2-amino-[1,2,4]triazolo[1,5-a]pyridinyl)-1H-pyrazolyl)-1-(methylsulfonyl)cyclobutane)acetonitrile], the IC50 at JAK2 (setting [1]) fell in the range of 10 to 100 nM. Also, the “JAK1/JAK2 (times)” value on JAK1 is given as “F1 (1 ≤ F1 ≤ 5)”. Further, the “JAK3/JAK2 (times)” value at JAK3 (setting [2]) was “F3 (10 < F3 ≤ 25)”.
`CCS(=O)(=O)N1CC(CC#N)(n2cc(-c3cccn4nc(NC(=O)C5CC5)nc34)cn2)C1` [WX20, N-(8-(1-(3-(cyanomethyl)-1-(ethylsulfonyl)azetidine-3-yl)-1H-pyrazole-4-yl)-[1,2,4]triazolo[1,5-a]pyridin-2-yl) cyclopropanecarboxamide]: the IC50 at JAK2 (setting [1]) was < 10 nM. Also, on JAK1, the “JAK1/JAK2 (times)” value is given as “F1 (1 ≤ F1 ≤ 5)”. Moreover, on JAK3 (setting [2]), the “JAK3/JAK2 (times)” value is “F4 (25 < F4 ≤ 100)”.
Consider `CCS(=O)(=O)N1CC(CC#N)(n2cc(-c3cccn4nc(NC(=O)C(F)(F)F)nc34)cn2)C1` [WX22, N-(8-(1-(3-(cyanomethyl)-1-(ethylsulfonyl)azetidine-3-yl)-1H-pyrazole-4-yl)-[1,2,4]triazolo[1,5-a]pyridin-2-yl)-2,2,2-trifluoroacetamide], for which the IC50 on JAK2 (setting [1]) is 100 to 1000 nM. Moreover, on JAK1, the “JAK1/JAK2 (times)” value is recorded as “F1 (1 ≤ F1 ≤ 5)”. The “JAK3/JAK2 (times)” value on JAK3 (setting [2]) was “F3 (10 < F3 ≤ 25)”.
Regarding `N#CCC1(n2cc(-c3cccn4nc(NC(=O)C(F)(F)F)nc34)cn2)CN(S(=O)(=O)C2CC2)C1` [WX23], the IC50 on JAK2 (setting [1]) fell in the range of 100 to 1000 nM. In addition, the “JAK1/JAK2 (times)” value on JAK1 is recorded as “F1 (1 ≤ F1 ≤ 5)”. Also, the “JAK3/JAK2 (times)” value at JAK3 (setting [2]) is listed as “F3 (10 < F3 ≤ 25)”.
With `COCC(=O)Nc1nc2ccnc(-c3cnn(C4(CC#N)CN(S(=O)(=O)C(F)(F)F)C4)c3)n2n1` [WX24, N-(5-(1-(3-(cyanomethyl)-1-((trifluoromethyl)sulfonyl)azetidine-3-yl)-1H-pyrazole-4-yl)-[1,2,4]triazolo[1,5-c]pyridin-2-yl)-2-methoxyacetamide], the IC50 at JAK2 (setting [1]) was in the range of 10 to 100 nM. Moreover, the “JAK1/JAK2 (times)” value at JAK1 was “F3 (10 < F3 ≤ 25)”. Further, the “JAK3/JAK2 (times)” value on JAK3 (setting [2]) is on record as “F4 (25 < F4 ≤ 100)”.
On to `CS(=O)(=O)N1CC(CC#N)(n2cc(-c3nccc4nc(NC(=O)CC#N)nn34)cn2)C1` [WX26], for which the IC50 at JAK2 (setting [1]) is 100 to 1000 nM. Also, on JAK1, the “JAK1/JAK2 (times)” value is reported as “F3 (10 < F3 ≤ 25)”. In addition, on JAK3 (setting [2]), the “JAK3/JAK2 (times)” value is given as “F3 (10 < F3 ≤ 25)”.
For the compound `CS(=O)(=O)N1CC(CC#N)(n2cc(-c3cccc4nc(N)sc34)cn2)C1` [WX27, 2-(3-(4-(2-aminobenzo[d]thiazole-7-yl)-1H-pyrazole-1-yl)-(methylsulfonyl)azetidine-3-yl) methyl cyanide], on JAK2, the IC50 is < 10 nM. The “JAK1/JAK2 (times)” value on JAK1 was “F3 (10 < F3 ≤ 25)”. Further, the “JAK3/JAK2 (times)” value on JAK3 is “F2 (key: 1 ≤ F1 ≤ 5; 5 < F2 ≤ 10; 10 < F3 ≤ 25; 25 < F4 ≤ 100)”.
`CS(=O)(=O)N1CC(CC#N)(n2cc(-c3cccc4nc(NC(=O)C5CC5)sc34)cn2)C1` [WX28, N-(7-(1-(3-(cyanomethyl)-1-(methylsulfonyl)azetidin-3-yl)-1H-pyrazole-4-yl)benzo[d]thiazole-2-yl) cyclopropanecarboxamide]: on JAK2 (setting [1]), the IC50 was < 10 nM. Further, the “JAK1/JAK2 (times)” value at JAK1 is “F3 (10 < F3 ≤ 25)”. Besides, at JAK3 (setting [2]), the “JAK3/JAK2 (times)” value is on record as “F4 (25 < F4 ≤ 100)”.
For the compound `CS(=O)(=O)N1CC(CC#N)(n2cc(-c3cccc4nc(N)oc34)cn2)C1` [WX29, 2-(3-(4-(2-aminobenzo[d]oxazole-7-yl)-1H-pyrazole-1-yl)-1-(methylsulfonyl)azetidin-3-yl)acetonitrile], the IC50 on JAK2 (setting [1]) is < 10 nM. In addition, at JAK1, the “JAK1/JAK2 (times)” value is given as “F3 (10 < F3 ≤ 25)”. Moreover, on JAK3 (setting [2]), the “JAK3/JAK2 (times)” value is “F4 (25 < F4 ≤ 100)”.
Take `CS(=O)(=O)N1CC(CC#N)(n2cc(-c3cccc4nc(NC(=O)C5CC5)oc34)cn2)C1` [WX30, N-(7-(1-(3-(cyanomethyl)-1-(methylsulfonyl)azetidin-3-yl)-1H-pyrazole-4-yl)benzo[d]oxazole-2-yl) cyclopropanecarboxamide]: the IC50 at JAK2 (setting [1]) was < 10 nM. Also, on JAK1, the “JAK1/JAK2 (times)” value is on record as “F2 (5 < F2 ≤ 10)”. Further, the “JAK3/JAK2 (times)” value at JAK3 (setting [2]) was “F4 (25 < F4 ≤ 100)”.
As for `CCS(=O)(=O)N1CC(CC#N)(n2cc(-c3nccn4nc(NC(=O)C5CC5)nc34)cn2)C1` [WX31, N-[8-[1-[3-(cyanomethyl)-1-ethylsulfonylazetidin-3-yl]pyrazole-4-yl)-[1,2,4]triazolo[1,5-a]pyrazine-2-yl] cyclopropanecarboxamide], the IC50 on JAK2 (setting [1]) fell in the range of 100 to 1000 nM. Besides, the “JAK1/JAK2 (times)” value at JAK1 is “F2 (5 < F2 ≤ 10)”. Also, the “JAK3/JAK2 (times)” value on JAK3 (setting [2]) is reported as “F3 (10 < F3 ≤ 25)”.
Turning to `N#CCC1(n2cc(-c3nccc4nc(NC(=O)C5CC(F)(F)C5)nn34)cn2)CN(S(=O)(=O)C(F)(F)F)C1` [WX32, N-[5-[1-[3-(cyanomethyl)-1-(trifluoromethylsulfonyl)azetidin-3-yl]pyrazole-4-yl]-[1,2,4]triazolo[1,5-c]pyrimidin-2-yl]-3,3-difluoro-cyclobutanecarboxamide], at JAK2 (setting [1]), the IC50 fell in the range of 100 to 1000 nM. Further, the “JAK1/JAK2 (times)” value at JAK1 is given as “F2 (5 < F2 ≤ 10)”. Also, the “JAK3/JAK2 (times)” value on JAK3 (setting [2]) is “F3 (10 < F3 ≤ 25)”.
As for `CN(C)Cc1cc(C(=O)N2CCC(N3CC(CC#N)(n4cc(-c5cccc6nc(NC(=O)C7CC7)nn56)cn4)C3)CC2)nc(C(F)(F)F)n1` [WX33], the IC50 at JAK2 (setting [1]) was 10 to 100 nM. For the same compound, the “JAK1/JAK2 (times)” value on JAK1 is listed as “F1 (1 ≤ F1 ≤ 5)”. Besides, at JAK3 (setting [2]), the “JAK3/JAK2 (times)” value was “F3 (10 < F3 ≤ 25)”.
Consider “N-(5-(1-(3-(cyanomethyl)-1-((methylsulfonyl)azetidine-3-yl)-1H-pyrazole-4-yl)-[1,2,4]triazolo[1,5-c]pyridin-2-yl)-2-methoxyacetamide [WX25]”, for which, at JAK2 (setting [1]), the IC50 fell in the range of 100 to 1000 nM. In addition, at JAK1, the “JAK1/JAK2 (times)” value is reported as “F3 (10 < F3 ≤ 25)”. At JAK3 (setting [2]), the “JAK3/JAK2 (times)” value was “F2 (5 < F2 ≤ 10)”.
